# Like-named read-outs stand apart in the source and are kept apart here.
# How the values were obtained:
# [1] = Cytotoxicity Determination (CCK-8, without addition of virus); format: cell-based; details: human, 50% cytotoxicity concentration (CC50)
# Summary of the method: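 HEp-2 cells were seeded at 1,500 cells/well one day before compound addition. Compounds were tested without virus in duplicate over 7 points from 100 μM in 1/2 steps, with 1% final DMSO, 5 days at 37 °C, 5% CO2. Viability was read by CCK-8 after 3-4 hours.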
# [2] = test system: Respiratory Syncytial Virus (RSV) long strain; assay: microbe, parasite or virus in culture; format: cell-based; details: human respiratory syncytial virus, Tables A and B list compounds by EC50 band
# Summary of the method: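 HEp-2 cells infected with 100 TCID50 virus per well, compounds in duplicate, 9-point 1/3 dilutions from 100 μM or 1 μM, 1% DMSO. After 5 days at 37 °C, cell viability (CPE protection) read by CCK-8 absorbance at 450 nm, 630 nm background.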
# RSV replicon = assay: microbe, parasite or virus in culture; format: cell-based; details: human respiratory syncytial virus, read-out: EC50, the concentration of the drug required for reducing RSV replicon RNA by 50%
# recombinant RSV complex = recombinant RSV complex (Human respiratory syncytial virus A, UniProt P28887); assay: RSV Polymerase Inhibition Assay; format: biochemical
# Chain of recombinant RSV complex (P28887 whole entry): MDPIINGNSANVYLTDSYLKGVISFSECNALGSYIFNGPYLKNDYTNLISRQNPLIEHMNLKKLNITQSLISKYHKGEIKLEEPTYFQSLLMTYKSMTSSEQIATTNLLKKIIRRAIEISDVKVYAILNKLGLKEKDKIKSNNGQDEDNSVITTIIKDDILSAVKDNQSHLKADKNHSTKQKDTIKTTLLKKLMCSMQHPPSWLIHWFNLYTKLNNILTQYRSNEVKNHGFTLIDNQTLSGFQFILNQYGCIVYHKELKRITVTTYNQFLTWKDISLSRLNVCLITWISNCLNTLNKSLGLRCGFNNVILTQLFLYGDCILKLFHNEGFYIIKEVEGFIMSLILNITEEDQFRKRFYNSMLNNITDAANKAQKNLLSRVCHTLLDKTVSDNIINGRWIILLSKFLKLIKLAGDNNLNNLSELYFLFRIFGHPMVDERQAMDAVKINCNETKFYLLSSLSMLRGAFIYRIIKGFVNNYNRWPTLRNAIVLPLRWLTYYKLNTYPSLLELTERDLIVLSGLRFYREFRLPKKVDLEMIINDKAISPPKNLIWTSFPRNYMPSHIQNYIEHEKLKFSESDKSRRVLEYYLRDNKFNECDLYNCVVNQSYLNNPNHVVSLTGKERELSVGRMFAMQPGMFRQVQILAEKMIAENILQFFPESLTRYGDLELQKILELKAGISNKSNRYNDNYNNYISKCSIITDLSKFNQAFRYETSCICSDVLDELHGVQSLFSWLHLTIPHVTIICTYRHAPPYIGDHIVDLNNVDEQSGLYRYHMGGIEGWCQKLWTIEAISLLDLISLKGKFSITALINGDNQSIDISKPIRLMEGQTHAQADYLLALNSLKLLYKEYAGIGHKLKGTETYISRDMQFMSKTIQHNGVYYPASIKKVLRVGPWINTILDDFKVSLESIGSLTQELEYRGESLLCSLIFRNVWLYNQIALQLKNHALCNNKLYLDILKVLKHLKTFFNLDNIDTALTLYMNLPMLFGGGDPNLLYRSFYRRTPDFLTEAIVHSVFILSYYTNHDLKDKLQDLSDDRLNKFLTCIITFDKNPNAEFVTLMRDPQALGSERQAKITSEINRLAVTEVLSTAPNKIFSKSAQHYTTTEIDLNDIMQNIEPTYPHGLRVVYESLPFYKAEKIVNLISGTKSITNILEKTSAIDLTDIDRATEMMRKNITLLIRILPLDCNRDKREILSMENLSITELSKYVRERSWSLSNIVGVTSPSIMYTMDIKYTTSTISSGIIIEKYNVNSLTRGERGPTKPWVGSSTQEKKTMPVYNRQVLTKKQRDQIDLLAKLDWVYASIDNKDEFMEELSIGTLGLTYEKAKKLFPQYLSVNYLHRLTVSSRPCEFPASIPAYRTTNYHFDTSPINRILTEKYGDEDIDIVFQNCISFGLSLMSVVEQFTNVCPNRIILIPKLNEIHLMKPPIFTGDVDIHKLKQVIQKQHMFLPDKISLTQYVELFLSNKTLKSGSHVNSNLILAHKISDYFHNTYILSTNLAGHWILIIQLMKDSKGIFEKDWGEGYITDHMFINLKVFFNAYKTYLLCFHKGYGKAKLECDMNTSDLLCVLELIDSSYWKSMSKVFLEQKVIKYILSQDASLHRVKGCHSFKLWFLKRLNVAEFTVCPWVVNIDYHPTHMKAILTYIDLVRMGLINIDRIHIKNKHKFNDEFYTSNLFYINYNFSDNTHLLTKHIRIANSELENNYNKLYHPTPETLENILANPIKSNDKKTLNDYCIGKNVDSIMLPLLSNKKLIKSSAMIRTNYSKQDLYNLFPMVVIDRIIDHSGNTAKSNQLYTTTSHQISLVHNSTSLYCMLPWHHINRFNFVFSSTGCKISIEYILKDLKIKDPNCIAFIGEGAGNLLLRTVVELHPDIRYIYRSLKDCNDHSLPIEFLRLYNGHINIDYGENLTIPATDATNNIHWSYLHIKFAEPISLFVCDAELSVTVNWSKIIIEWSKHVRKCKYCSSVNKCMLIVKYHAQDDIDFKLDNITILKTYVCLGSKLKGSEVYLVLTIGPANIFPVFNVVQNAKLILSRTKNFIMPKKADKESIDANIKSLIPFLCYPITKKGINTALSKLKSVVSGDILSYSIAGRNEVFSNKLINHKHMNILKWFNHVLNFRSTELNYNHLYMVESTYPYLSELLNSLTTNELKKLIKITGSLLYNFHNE
# Chain of recombinant RSV complex (P03421 whole entry, further chain): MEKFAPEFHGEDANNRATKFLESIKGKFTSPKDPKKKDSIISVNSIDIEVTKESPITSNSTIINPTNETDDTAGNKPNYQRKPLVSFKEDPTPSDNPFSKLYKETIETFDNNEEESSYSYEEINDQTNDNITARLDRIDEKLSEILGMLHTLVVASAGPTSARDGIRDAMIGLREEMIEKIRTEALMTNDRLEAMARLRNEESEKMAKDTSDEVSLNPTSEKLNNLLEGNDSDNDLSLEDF
# Summary of the method: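 10 nM recombinant RSV polymerase complex in Tris-HCl pH 7.5, 6 mM MgCl2 with RNA oligonucleotide template and radionucleotides, incubated 2 h at 30 °C with increasing inhibitor concentrations. Reaction stopped with EDTA; radiolabeled RNA product counted by scintillation.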
# [3] = 120 h, read-out: 50% effective concentration (EC50), HEp-2 cells infected with RSV long strain, 5 days, CCK-8 readout
# [4] = HEp-2, 120 h, read-out: 50% effective concentration (EC50), HEp-2 cells infected with RSV long strain, 5 days, CCK-8 readout
Compound,CC50 at 5 days [1],"EC50 [2, 3]",EC50 (RSV replicon),IC50 (recombinant RSV complex),"EC50 [2, 4]"
COc1cc(C(=O)NCC(C)(O)c2ccc(OC)c(-c3ccc(F)c(Cl)c3)n2)ccc1OCCO (racemic) [Compound 120],> 100000 nM,< 1000 nM,< 1000 nM,< 1000 nM,
CCC(O)(CNC(=O)c1ccc(OCCF)c(OC)c1)c1ccc(OC)c(-c2ccc(F)c(Cl)c2)n1 (racemic) [Compound 122],10000 to 100000 nM,,< 1000 nM,< 1000 nM,< 1000 nM
COc1cc(C(=O)NCC(C)(O)c2cc3c(c(-c4ccc(F)c(Cl)c4)n2)OCC3(C)C)ccc1OCCO (racemic) [Compound 166],10000 to 100000 nM,,< 1000 nM,< 1000 nM,< 1000 nM
"CCC(O)(CNC(=O)c1ccc(OCCF)c(OC)c1)c1ccc(OC)c(-c2ccc(F)c(Cl)c2)n1 (single isomer, unassigned) [Compound 122a]",10000 to 100000 nM,,< 1000 nM,< 1000 nM,< 1000 nM
"COc1cc(C(=O)NCC(O)(c2ccc(OC)c(-c3ccc(F)c(Cl)c3)n2)C2CC2)ccc1OCC(N)=O (single isomer, unassigned) [Compound 431]",10000 to 100000 nM,,< 1000 nM,< 1000 nM,< 1000 nM
"COc1cc(C(=O)NCC(O)(c2cc(C(C)(N)CF)cc(-c3ccc(F)cc3)n2)C(F)(F)F)ccc1OCCO (single isomer, unassigned) [Compound 664]",10000 to 100000 nM,,< 1000 nM,< 1000 nM,< 1000 nM
CCc1ccc(C(C)(O)CNC(=O)c2ccc(OC)c(OC)c2)nc1-c1csc2c(F)cccc12 (stereo not shown) [Compound 115],10000 to 100000 nM,,< 1000 nM,< 1000 nM,< 1000 nM
COc1cc(C(=O)NCC(C)(O)c2ccc(OC)c(-c3ccc(F)c(Cl)c3)n2)ccc1OCCF (stereo not shown) [Compound 119],10000 to 100000 nM,,< 1000 nM,< 1000 nM,< 1000 nM
COc1cc(C(=O)NCC(O)(c2ccc(OC)c(-c3ccc(F)c(Cl)c3)n2)C2CC2)ccc1OCCF (stereo not shown) [Compound 123],> 100000 nM,,< 1000 nM,< 1000 nM,< 1000 nM
CC#CC(O)(CNC(=O)c1ccc(OCCF)c(OC)c1)c1ccc(OC)c(-c2ccc(F)c(Cl)c2)n1 (stereo not shown) [Compound 124],10000 to 100000 nM,,< 1000 nM,< 10000 nM,< 1000 nM
COc1cc(C(=O)NCC(O)(c2ccc(OC)c(-c3ccc(F)c(Cl)c3)n2)C(C)C)ccc1OCCF (stereo not shown) [Compound 125],10000 to 100000 nM,,< 1000 nM,< 1000 nM,< 1000 nM
C=CC(O)(CNC(=O)c1ccc(OCCF)c(OC)c1)c1ccc(OC)c(-c2ccc(F)c(Cl)c2)n1 (stereo not shown) [Compound 126],10000 to 100000 nM,,< 1000 nM,< 1000 nM,< 1000 nM
C#CC(O)(CNC(=O)c1ccc(OCCF)c(OC)c1)c1ccc(OC)c(-c2ccc(F)c(Cl)c2)n1 (stereo not shown) [Compound 127],10000 to 100000 nM,,1000 to 50000 nM,< 1000 nM,< 1000 nM
COc1ccc(C(=O)NCC(=O)c2nc(-c3csc4c(F)cccc34)c3ccccn23)cc1OC [Compound 130],10000 to 100000 nM,< 1000 nM,< 1000 nM,< 1000 nM,
COc1cc(C(=O)NCC(=O)c2cc3c(c(-c4ccc(F)c(Cl)c4)n2)OCC3(C)C)ccc1OCCO [Compound 140],10000 to 100000 nM,< 1000 nM,< 1000 nM,< 1000 nM,
COc1cc(C(=O)NCC(C)(O)c2cccc(-c3csc4c(F)cccc34)n2)ccc1OCCO (stereo not shown) [Compound 143],10000 to 100000 nM,,< 1000 nM,< 1000 nM,< 1000 nM

Compound,CC50 at 5 days [1],"EC50 [2, 3]",EC50 (RSV replicon),IC50 (recombinant RSV complex),"EC50 [2, 4]"
COc1cc(C(=O)NCC(O)(CO)c2ccc(OC)c(-c3ccc(F)c(Cl)c3)n2)ccc1OCCO (stereo not shown) [Compound 176],> 100000 nM,,< 1000 nM,< 1000 nM,< 1000 nM
COc1cc(C(=O)NCC(O)(CNC2CC2)c2ccc(OC)c(-c3ccc(F)c(Cl)c3)n2)ccc1OCCO (stereo not shown) [Compound 189],> 100000 nM,,< 1000 nM,< 1000 nM,< 1000 nM
COc1cc(C(=O)NCC(O)(Cn2ccnc2)c2ccc(OC)c(-c3ccc(F)c(Cl)c3)n2)ccc1OCCO (stereo not shown) [Compound 191],> 100000 nM,,< 1000 nM,< 1000 nM,< 1000 nM
COc1cc(C(=O)NCC(O)(Cn2ccnn2)c2ccc(OC)c(-c3ccc(F)c(Cl)c3)n2)ccc1OCCO (stereo not shown) [Compound 192],> 100000 nM,,< 1000 nM,< 1000 nM,< 1000 nM
COc1cc(C(=O)NCC(O)(Cn2nccn2)c2ccc(OC)c(-c3ccc(F)c(Cl)c3)n2)ccc1OCCO (stereo not shown) [Compound 193],10000 to 100000 nM,,< 1000 nM,< 1000 nM,< 1000 nM
COc1cc(C(=O)NCC(O)(Cn2cncn2)c2ccc(OC)c(-c3ccc(F)c(Cl)c3)n2)ccc1OCCO (stereo not shown) [Compound 194],> 100000 nM,,< 1000 nM,< 1000 nM,< 1000 nM
COc1cc(C(=O)NCC(O)(CNC(C)=O)c2ccc(OC)c(-c3ccc(F)c(Cl)c3)n2)ccc1OCCO (stereo not shown) [Compound 195],> 100000 nM,,< 1000 nM,< 1000 nM,< 1000 nM
COc1cc(C(=O)NCC(O)(c2cc3c(c(-c4ccc(F)c(Cl)c4)n2)OCC3(C)C)C(F)(F)F)ccc1OC1CCNC1=O (stereo not shown) [Compound 200],10000 to 100000 nM,< 1000 nM,< 1000 nM,< 1000 nM,
COc1cc(C(=O)NCC(O)(c2cc3c(c(-c4ccc(F)c(Cl)c4)n2)OCC3(C)C)C(F)(F)F)cc2cccnc12 (stereo not shown) [Compound 208],10000 to 100000 nM,,< 1000 nM,< 1000 nM,< 1000 nM
COc1cc(C(=O)NCC(O)(c2cc3c(c(-c4ccc(F)c(Cl)c4)n2)OCC3(C)C)C(F)(F)F)ccc1OC1CC1 (stereo not shown) [Compound 209],> 100000 nM,,< 1000 nM,< 1000 nM,< 1000 nM
COc1cc(C(=O)NCC(O)(c2cc3c(c(-c4ccc(F)c(Cl)c4)n2)OCC3(C)C)C(F)(F)F)ccc1OCC(C)O (stereo not shown) [Compound 211],10000 to 100000 nM,,< 1000 nM,< 1000 nM,< 1000 nM
COc1cc(C(=O)NCC(O)(Cn2cccn2)c2cc3c(c(-c4ccc(F)c(Cl)c4)n2)OCC3(C)C)ccc1OC1CCNC1=O (stereo not shown) [Compound 218],10000 to 100000 nM,,< 1000 nM,< 1000 nM,< 1000 nM
COc1cc(C(=O)NCC(=O)c2cc3c(c(-c4ccc(F)c(Cl)c4)n2)OCC3(C)C)cc2cccnc12 [Compound 220],> 100000 nM,< 1000 nM,1000 to 50000 nM,< 1000 nM,
COc1cc(C(=O)NCC(O)(c2cc3c(c(-c4ccc(F)c(Cl)c4)n2)OCC3(C)C)C2CC2)ccc1OC1CCNC1=O (stereo not shown) [Compound 223],10000 to 100000 nM,,< 1000 nM,< 1000 nM,< 1000 nM
COc1cc(C(=O)NCC(O)(c2cc3c(c(-c4ccc(F)c(Cl)c4)n2)OCC3(C)C)C2CC2)cc2cccnc12 (stereo not shown) [Compound 224],10000 to 100000 nM,,< 1000 nM,< 1000 nM,< 1000 nM

# From patent US11021444B2, “Antiviral compounds” (priority 2013, dated 2021)
